Source: US20240400529A1, “COMPOSITIONS AND METHODS FOR THE PREVENTION AND/OR TREATMENT OF MITOCHONDRIAL DISEASE, INCLUDING FRIEDREICH'S ATAXIA” (Stealth BioTherapeutics Inc., priority 2019, published 2024)
“Also recorded” adds a separate entry of the source.

Legend:
[1] = system: GM03665 cells (fibroblasts from a subject with Friedreich's ataxia); test: RSL3 Toxicity Assay (RSL3 Assay); assay type: cell-based, human
Description: In brief, GM03665 cells (Coriell Institute) were seeded in 96-well plates (Sarstedt) in DMEM cell culture media containing 10% Fetal Bovine serum and 1% Penicillin-Streptomycin (Pen-Strep) antibiotic mix at the amount of 2×10^4/mL (100 μL or 2×10^3 cells per well). Cells were left to rest overnight at 37° C. in a humidified atmosphere with 5% CO2 to allow attachment of the cells to the culture plate. Test compounds were prepared as DMSO stocks (10 mM) and were serially diluted in cell culture media to obtain 2× working solutions. Cell media was discarded and replaced by 50 μL of test compound solutions or cell media with vehicle for control wells. Within 15 minutes, 2× working solution (4 μM) of 1S,3R-RSL3 (CAS #1219810-16-8, Sigma-Aldrich) (diluted from 5 mM DMSO stock in cell culture media) was added. Final reaction volume was 100 μL and final DMSO concentration in reaction was kept below 0.2% (v/v) and equal in all wells. Final RSL3 concentration was 2 μM and test compound final concentrations in reaction were up to 1000 nM. After 24 hours of incubation cell viability was assessed by MTT test. MTT (Sigma-Aldrich) solution 1 mg/mL in 1×PBS (pH=7,4) was prepared 1 hour before the assay and filtered through Filtropur S 0.2 filters (Sarstedt). Cell media with test compounds was discarded and 100 μL of MTT solution was added to cells. The plates were incubated for 2 hours at +37° C. Thereafter, the MTT solution was removed and 100 μL of isopropanol was added to dissolve sediment. Absorption at 570 and 650 nm was measured using Hidex Sense microplate reader.

lipoxygenase-15 enzyme = lipoxygenase-15 enzyme (Glycine max (Soybean) (Glycine hispida), UniProt P08170); test: Lipoxygenase-15 Assay (LO-15 Assay); assay type: biochemical; conditions: reduced forms tested
[2] = system: HepG2 human hepatocarcinoma cells; test: Rotenone ATP Assay (Complex I by-pass); assay type: cell-based; conditions: summary statements also cover the Oxygraph assay
Description: This assay has been adapted from Haefeli R H, Erb M, Gemperli A C, Robay D, Courdier Fruh I, et al. (2011) NQO1-Dependent Redox Cycling of Idebenone: Effects on Cellular Redox Potential and Energy Levels. PLOS ONE 6 (3): e17963. HepG2 human hepatocarcinoma cells were co-incubated with the electron transport chain Complex I toxin rotenone+/−compounds of interest and the corresponding effect on ATP synthesis was measured with a bioluminescent substrate.
In brief, HepG2 cells were plated at 25,000 cells per well in low glucose (1 gram/Liter) DMEM medium+10% fetal calf serum and incubated for 24 hours. The following day, the media was decanted and subsequently replaced with glucose free/serum free DMEM which has been supplemented with 50 micromolar rotenone and compound of interest. Serial dilutions of compound were prepared in 3× dilutions beginning at 25 micromolar. The cells were incubated for 60 minutes in a humidified tissue culture incubator. Following incubation, ATP levels were quantified via bioluminescent assay (Promega […] Glo Assay kit) and readings were captured on a standard microplate reader.
ATP bioluminescence is plotted versus the log of compound of interest and data were used to generate EC50 values. Curve fitting was performed using a sigmoidal dose response curve fit function (GraphPad Prism software).
Robustness of curve fit was assessed as a quality control measure, with an R squared value of at least 0.80 being required for a successful curve fit. Compounds of interest showing an increase in ATP bioluminescence relative to vehicle control were verified in an independent biological replicate of n=3 technical replicates per dose.
This assay is a direct measure of the ability of compounds of interest to restore ATP production under conditions of inhibition of Complex I of the mitochondrial electron transport chain. As the majority of ATP produced via the electron transport chain is thought to derive from Complex I activity, significant impairment in Complex I function has dire biological consequences. Of note, Complex I mutations are thought to drive pathophysiology in multiple mitochondrial diseases, including Leigh syndrome and Leber's Hereditary Optic Neuropathy (LHON), while diminished Complex I activity and the resultant attenuation of ATP production has been shown in neurodegenerative diseases, including Friedreich's Ataxia, Parkinson's Disease and Huntington's Disease.

[3] = system: frataxin deficient fibroblasts (Friedreich's ataxia patient, GM03665); assay type: cell-based
intact HepG2 cells = test: Rotenone Oxygraph Assay (high-resolution respirometry); assay type: cell-based, human; conditions: 1 μM rotenone, 10 μM compound
Description: The Oxygraph-2k (O2k, OROBOROS INSTRUMENTS, Austria) was used for measurements of respiration of intact cells. The respirometry was performed in Dulbecco's Modified Eagle Medium (DMEM) high glucose without supplements. All experiments were performed at 37° C.
HepG2 cells (ATCC collection code HB-8065™) were cultured in 10 cm^2 culture dishes in DMEM high glucose medium supplemented with 10% fetal bovine serum (FBS) and 100 units/mL penicillin and 100 μg/mL streptomycin until approximately 90% confluence was reached. Immediately prior to performing the respirometric assay, the cells were washed with media without FBS, trypsinized and resuspended in DMEM high glucose without FBS.
The final concentration of intact cells in the O2k-chamber was 0.5.10^6/mL. After stabilization of respiration, the Complex I inhibitor, rotenone, at 1 μM final concentration was added to inhibit electron flux via Complex I. Then, compound to be tested was added at 10 μM final concentration, and the change in respiration rate of intact cells was monitored.

Nrf-2 responsive genes = test: Nrf-2 Activation Assay (Nrf-2 Assay); assay type: cell-based, human; conditions: FIG. 7; 1 μM, 24 hours
Description: This assay was developed internally and was designed to determine if the novel test compounds disclosed herein active Nrf-2 and thereby promote resolution of inflammation by the mechanism believed to be responsible for the activity of omaveloxolone.
Briefly, GM03665 Eriedreich Ataxia patient fibroblasts were grown in 12 Well Plates (TC Cell+F) (Sarstedt, Nümbrecht Germany), at a density of 12×10^4 cells/per well in DMEM/F12 (Gibco, ThermoFisher Scientific, Waltham, MA, USA) cell media supplemented with 10% FBS and 1% Pen/Strep. Cells were left to rest overnight at 37° C. in a humidified atmosphere with 5% CO2 to allow attachment of the cells to the culture plate. Before continuing assay visual inspection of each well was done by light microscopy to detect any possible bacterial and fungal contamination. […] After incubation, cell media was removed and total RNA from the cells was isolated using E.Z.N.A.® Total RNA Kit I (Omega Bio-tek, Norcross, Georgia, USA) spin columns, and first-strand cDNA synthesis was carried out using a High Capacity cDNA Reverse Transcription Kit (Applied Biosystems™, Foster City, CA) following the manufacturer's instructions. qPCR analysis of gene expression was performed by mixing SYBR® Green Master Mix (Applied Biosystems™) with synthesized cDNA and forward and reverse primers. […] (60 cycles), and 95° C. for 60 seconds, followed by melt curve analysis at 72-95° C., 0.3° C./sec. The relative expression levels for each gene were calculated with the ΔΔCt method and normalized to the expression of REEP5 and SNRPD3 genes.

CC1=C(C)C(=O)C(CC[C@](C)(O)CCCCCCCCC(F)(F)F)=C(C)C1=O [Compound N, (R)-2,3,5-trimethyl-6-(12,12,12-trifluoro-3-hydroxy-3-methyldodecyl)cyclo-hexa-2,5-diene-1,4-dione]
activity in the RSL3 Assay, in words [1]: active; also recorded: able to prevent ferroptotic cell death | lipoxygenase-15 inhibition, in words (lipoxygenase-15 enzyme): effective inhibitors | Complex I by-pass activity / restoring ATP production, in words [2]: possess both activities | protection from BSO induced cell death / ferroptosis, in words [3]: possess both activities; also recorded: able to prevent ferroptotic cell death; also recorded: active | Rotenone Oxygraph Assay % Increase (Table 7) (intact HepG2 cells): 44.8 +/− 10.3% | activation of Nrf-2 responsive genes / pathway, in words (Nrf-2 responsive genes): do not activate
